# Results as given in patent publication US20220265629A1, “TREATMENT OF SYSTOLIC DYSFUNCTION AND HEART FAILURE WITH REDUCED EJECTION FRACTION WITH THE COMPOUND (R)-4-(1-((3-(DIFLUOROMETHYL)-1-METHYL-1H-PYRAZOL-4-YL)SULFONYL)-1-FLUOROETHYL)-N-(ISOXAZOL-3-YL)PIPERIDINE-1-CARBOXAMIDE” (MyoKardia, Inc., priority 2019, published 2022).
# Test system: healthy subjects
# Test: Single ascending oral dose study in healthy volunteers: transthoracic echocardiography (TTE) pharmacodynamics
# Assay type: in vivo, human
# Description: To assess pharmacodynamic effects, serial echocardiograms were performed. The sonographers used in the study completed Echo protocol training and submitted an example of a study for evaluation to the core laboratory for evaluation. The core TTE lab certified that the sonographer was able to perform the TTEs at a level satisfactory for obtaining the required protocol data.
# These criteria were chosen to prevent subjects from having prolongation of SET that might lead to myocardial ischemia. Dose escalation stopping criteria also included observation of a Baseline-corrected, group mean relative increase of >20% in any 2 sequential TTE assessments in at least 2 measures of LV contractility: LVOT-VTI, LVFS, LVEF, or LVSV in subjects receiving Compound I. Placebo-controlled evaluation may have been considered. For this comparison, subjects who received placebo may have been pooled across cohorts.
# SET as determined by TTE was assessed using summary statistics. Observations and change from Baseline were summarized by treatment at each time point and the maximum change from Baseline determined for each subject. In addition, categorical analyses were performed on the number of subjects with a change from Baseline>50 msec and the number of subjects with a change from Baseline>75 msec in 1 or any 2 sequential TTE assessments. The relationship to Compound I plasma concentration to SET was explored. An analysis of SET placebo-adjusted change from Baseline was also performed.
# As the Cmax occurred at between 4 and 6 hours in most of the subjects, the TTE obtained at 6 hours postclose was considered the best timepoint to explore the relationship between concentration and pharmacological effect. TTEs obtained at 1.5 and 3 hours after dosing were before the Cmax and at 9 hours were after the peak Cmax. Based on the preclinical data, it was considered unlikely that there would be a prolonged lag between the Cmax and peak pharmacological effect. As the exposure after the administration of the 350 mg and 525 mg doses were very similar, it was decided to not only present the results from these groups separately, but also to combine the data from these groups. By combining the data from the 2 groups, the number of subjects closed was increased from 6 to 12, thus increasing the power to observe a statistically significant change from Baseline in the TTE parameters of interest.
# An analysis of placebo-corrected change from Baseline at 6 hours postclose by Compound I plasma concentration bins is presented in Table 6 below.
# [1] = 6 hours post-dose, plasma 1001-2000 ng/mL
# [2] = 6 hours post-dose, plasma >2000 ng/mL
# [3] = concentration exceeded 2000 ng/mL (median 2592 ng/mL)
# [4] = plasma concentrations >2000 ng/mL, 6 hours postdose
smiles,measurement,setting,value
"Cn1cc(S(=O)(=O)[C@@](C)(F)C2CCN(C(=O)Nc3ccon3)CC2)c(C(F)F)n1 [Compound I, (R)-4-(1-((3-(difluoromethyl)-1-methyl-1H-pyrazol-4-yl)sulfonyl)-1-fluoroethyl)-N-(isoxazol-3-yl)piperidine-1-carboxamide]",LVESV placebo-corrected change from Baseline (LS mean difference),[1],-4.101 mL
same,LVFS placebo-corrected change from Baseline (LS mean difference),[1],3.549%
same,LVGCS placebo-corrected change from Baseline (LS mean difference),[1],−1.383%
same,LVGLS placebo-corrected change from Baseline (LS mean difference),[1],−1.274%
same,MPI placebo-corrected change from Baseline (LS mean difference),[1],−0.021
same,PEP placebo-corrected change from Baseline (LS mean difference),[1],-5.487 ms
same,Peak A placebo-corrected change from Baseline (LS mean difference),[1],-2.87 cm/s
same,Peak E placebo-corrected change from Baseline (LS mean difference),[1],-1.43 cm/s
same,SBP placebo-corrected change from Baseline (LS mean difference),[1],1.132 mm Hg
same,SET placebo-corrected change from Baseline (LS mean difference),[1],23.049 ms
same,Stroke Volume placebo-corrected change from Baseline (LS mean difference),[1],2.509 mL
same,DBP placebo-corrected change from Baseline (LS mean difference),[2],1.540 mm Hg
same,E/A ratio placebo-corrected change from Baseline (LS mean difference),[2],−0.047
same,E/e′(lateral) placebo-corrected change from Baseline (LS mean difference),[2],−0.063
same,HR placebo-corrected change from Baseline (LS mean difference),[2],2.871 bpm
same,IVCT placebo-corrected change from Baseline (LS mean difference),[2],6.115 ms
same,IVRT placebo-corrected change from Baseline (LS mean difference),[2],11.986 ms
same,LVEDD placebo-corrected change from Baseline (LS mean difference),[2],−0.115 cm
same,LVEDV placebo-corrected change from Baseline (LS mean difference),[2],-9.678 mL
same,LVEF placebo-corrected change from Baseline (LS mean difference),[2],3.219%
same,LVESD placebo-corrected change from Baseline (LS mean difference),[2],−0.306 cm
same,LVESV placebo-corrected change from Baseline (LS mean difference),[2],-6.031 mL
same,LVFS placebo-corrected change from Baseline (LS mean difference),[2],6.289%
same,LVGCS placebo-corrected change from Baseline (LS mean difference),[2],−2.854%
same,LVGLS placebo-corrected change from Baseline (LS mean difference),[2],−1.779%
same,MPI placebo-corrected change from Baseline (LS mean difference),[2],0.033
same,PEP placebo-corrected change from Baseline (LS mean difference),[2],-2.131 ms
same,Peak A placebo-corrected change from Baseline (LS mean difference),[2],657000 ×10⁻⁶ cm/s
same,Peak E placebo-corrected change from Baseline (LS mean difference),[2],-5.3 cm/s
same,SBP placebo-corrected change from Baseline (LS mean difference),[2],−1.572 mm Hg
same,SET placebo-corrected change from Baseline (LS mean difference),[2],25.645 ms
same,Stroke Volume placebo-corrected change from Baseline (LS mean difference),[2],8.197 mL
same,"LVEDD, mean decrease",[3],0.12 cm
same,"LVEDV, mean decrease",[3],9.68 mL
same,"LVEF, mean absolute increase",[3],3.2%
same,"LVESD, mean decrease",[3],0.31 cm
same,"LVESV, mean decrease",[3],6.03 mL
same,"LVFS, mean absolute increase",[3],6.3%
same,"LVGCS, mean absolute decrease",[3],2.85%
same,"LVGLS, mean absolute decrease",[3],1.78%
same,"LVSV, mean increase",[3],8.2%
same,"SET, mean increase",[3],25.7 ms
same,diastolic function/relaxation (E/A ratio and E/e′),plasma concentrations >2000 ng/mL,no significant effects
same,"SET, placebo-corrected change from Baseline (LS mean difference±SE)","plasma concentrations >2000 ng/mL (median 2425 ng/mL), 6 hours postdose",25.6 ± 7.71 ms
same,"IVRT (mitral inflow doppler), placebo-corrected change from Baseline (LS mean difference±SE)",[4],12.0 ± 3.92 ms
same,"LVEDV, placebo-corrected change from Baseline (LS mean difference±SE)",[4],-9.68 ± 2.95 mL
same,"LVEF, placebo-corrected change from Baseline (LS mean difference±SE)",[4],3.22±1.48%
same,"LVESD, placebo-corrected change from Baseline (LS mean difference±SE)",[4],−0.306±0.077 cm
same,"LVESV, placebo-corrected change from Baseline (LS mean difference±SE)",[4],-6.03 ± 1.87 mL
same,"LVFS, placebo-corrected change from Baseline (LS mean difference±SE)",[4],6.29±1.55%
same,"LVGCS, placebo-corrected change from Baseline (LS mean difference±SE)",[4],-2.85 ± 0.99%
same,"LVGLS, placebo-corrected change from Baseline (LS mean difference±SE)",[4],-1.78 ± 0.76%
same,"stroke volume, placebo-corrected change from Baseline (LS mean difference±SE)",[4],8.20 ± 3.99 mL
